Numbers after ± are expanded uncertainties.
Assay: xn = mol fraction of the nth substance listed
Details: Liquid, Vibrating tube method

CCCCn1cc[n+](C)c1.F[B-](F)(F)F [1-butyl-3-methylimidazolium tetrafluoroborate] + CO
mass density [kg/m3]
Details	298.15 K	323.15 K
210 kPa, x1 = 0.9102	1203.93 ± 0.44	–
230 kPa, x1 = 0.9102	–	1185.2 ± 0.43
240 kPa, x1 = 0.0087	–	781 ± 0.49
240 kPa, x1 = 0.2626	1065.61 ± 0.32	–
240 kPa, x1 = 0.7501	–	1168.14 ± 0.38
250 kPa, x1 = 0.4988	1144.91 ± 0.34	–
260 kPa, x1 = 0.1302	–	952.36 ± 0.35
300 kPa, x1 = 0.1302	975.12 ± 0.35	–
310 kPa, x1 = 0.7501	1186.96 ± 0.39	–
380 kPa, x1 = 0.0087	804.76 ± 0.48	–
400 kPa, x1 = 0.0433	867.22 ± 0.42	–
440 kPa, x1 = 0.0433	–	844.94 ± 0.41
670 kPa, x1 = 0.2626	–	1046.2 ± 0.32
780 kPa, x1 = 0.4988	–	1126.41 ± 0.33
4380 kPa, x1 = 0.0087	808.51 ± 0.48	–
5040 kPa, x1 = 0.9102	1206.16 ± 0.47	1187.61 ± 0.45
5070 kPa, x1 = 0.7501	–	1170.7 ± 0.4
5080 kPa, x1 = 0.7501	1189.2 ± 0.41	–
5210 kPa, x1 = 0.2626	1068.88 ± 0.32	–
5270 kPa, x1 = 0.0433	871.22 ± 0.4	–
5310 kPa, x1 = 0.4988	1147.71 ± 0.35	1128.87 ± 0.34
5320 kPa, x1 = 0.2626	–	1049.53 ± 0.32
5430 kPa, x1 = 0.0433	–	849.82 ± 0.48
5440 kPa, x1 = 0.0087	–	786.6 ± 0.5
5890 kPa, x1 = 0.1302	979.15 ± 0.35	–
6310 kPa, x1 = 0.1302	–	957.29 ± 0.32
10030 kPa, x1 = 0.7501	1191.5 ± 0.43	–
10030 kPa, x1 = 0.9102	1208.41 ± 0.5	1190.07 ± 0.48
10050 kPa, x1 = 0.4988	1150.25 ± 0.36	–
10080 kPa, x1 = 0.2626	1071.94 ± 0.33	–
10260 kPa, x1 = 0.0433	875.17 ± 0.42	–
10840 kPa, x1 = 0.1302	982.54 ± 0.35	–
10910 kPa, x1 = 0.0087	814.38 ± 0.49	–
15190 kPa, x1 = 0.0433	878.92 ± 0.42	–
15310 kPa, x1 = 0.9102	1210.74 ± 0.53	–
15330 kPa, x1 = 0.0087	818.18 ± 0.5	–
15380 kPa, x1 = 0.2626	1075.12 ± 0.33	–
15420 kPa, x1 = 0.7501	1193.96 ± 0.46	–
15620 kPa, x1 = 0.4988	1153.13 ± 0.38	–
15680 kPa, x1 = 0.1302	985.71 ± 0.35	–
19940 kPa, x1 = 0.0087	821.99 ± 0.51	–
20020 kPa, x1 = 0.0433	882.44 ± 0.49	–
20070 kPa, x1 = 0.9102	1212.8 ± 0.56	–
20140 kPa, x1 = 0.4988	1155.39 ± 0.4	–
20750 kPa, x1 = 0.2626	1078.17 ± 0.34	–
20890 kPa, x1 = 0.7501	1196.42 ± 0.49	–
20920 kPa, x1 = 0.1302	988.97 ± 0.35	–
25090 kPa, x1 = 0.2626	1080.52 ± 0.34	–
25120 kPa, x1 = 0.1302	991.46 ± 0.35	–
25410 kPa, x1 = 0.4988	1157.92 ± 0.42	–
25410 kPa, x1 = 0.9102	1215.05 ± 0.6	–
25420 kPa, x1 = 0.0433	886.2 ± 0.43	–
25680 kPa, x1 = 0.7501	1198.54 ± 0.52	–
25770 kPa, x1 = 0.0087	826.59 ± 0.52	–
30080 kPa, x1 = 0.0433	889.29 ± 0.49	–
30080 kPa, x1 = 0.7501	1200.46 ± 0.55	–
30090 kPa, x1 = 0.9102	1216.97 ± 0.63	–
30120 kPa, x1 = 0.2626	1083.1 ± 0.35	–
30410 kPa, x1 = 0.4988	1160.24 ± 0.44	–
30520 kPa, x1 = 0.0087	830.16 ± 0.53	–
31070 kPa, x1 = 0.1302	994.78 ± 0.35	–
35070 kPa, x1 = 0.2626	1085.49 ± 0.36	–
35290 kPa, x1 = 0.7501	1202.69 ± 0.58	–
35420 kPa, x1 = 0.0433	892.67 ± 0.44	–
35560 kPa, x1 = 0.1302	997.14 ± 0.35	–
35740 kPa, x1 = 0.0087	833.9 ± 0.54	–
35740 kPa, x1 = 0.4988	1162.61 ± 0.47	–
39560 kPa, x1 = 0.0433	895.16 ± 0.45	–
39780 kPa, x1 = 0.4988	1164.34 ± 0.49	–
39880 kPa, x1 = 0.0087	836.72 ± 0.55	–
39910 kPa, x1 = 0.7501	1204.65 ± 0.62	–
39910 kPa, x1 = 0.9102	1220.87 ± 0.71	–
39930 kPa, x1 = 0.9102	1220.88 ± 0.71	–
39960 kPa, x1 = 0.2626	1087.71 ± 0.37	–
40120 kPa, x1 = 0.1302	999.4 ± 0.35	–
